# What was measured:
# Experiment in all cases: Weeding effect in post-emergence stage
# Format in all cases: in vivo
# Conditions in all cases: active ingredient 2000 g/ha, 3 weeks after application, fresh weight control rate
# Abutilon theophrasti = system: Abutilon theophrasti
# Outline: (§1)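 Greenhouse post-emergence test: 2-3 leaf plants sprayed at 125-2000 g/ha, then fresh weight control rate scored at 3 weeks.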
# [1] = system: Amaranthus retroflexus L.
# Outline: as §1
# Descurainia sophia = system: Descurainia sophia
# Outline: as §1
# Chenopodium album = system: Chenopodium album
# Outline: as §1
SMILES,"Weeding effect, activity level (growth control rate), Abutilon theophrasti (Abutilon theophrasti)","Weeding effect, activity level (growth control rate), Amaranthus retroflexus L. [1]","Weeding effect, activity level (growth control rate), Descurainia sophia (Descurainia sophia)","Weeding effect, activity level (growth control rate), Chenopodium album (Chenopodium album)"
Cn1cc(-c2nccc(C(=O)Nc3nnnn3C)c2Cl)cn1 [Compound 1-168],5 (Level 5: growth control rate is above 85%),5 (Level 5: growth control rate is above 85%),5 (Level 5: growth control rate is above 85%),5 (Level 5: growth control rate is above 85%)
Cc1nn(C)cc1-c1nccc(C(=O)Nc2nnnn2C)c1Cl [Compound 1-169],5 (Level 5: growth control rate is above 85%),5 (Level 5: growth control rate is above 85%),5 (Level 5: growth control rate is above 85%),5 (Level 5: growth control rate is above 85%)
Cc1c(-c2nccc(C(=O)Nc3nnnn3C)c2Cl)cnn1C [Compound 1-170],5 (Level 5: growth control rate is above 85%),5 (Level 5: growth control rate is above 85%),5 (Level 5: growth control rate is above 85%),5 (Level 5: growth control rate is above 85%)
Cc1[nH]ncc1-c1nccc(C(=O)Nc2nnnn2C)c1Cl [Compound 1-171],5 (Level 5: growth control rate is above 85%),5 (Level 5: growth control rate is above 85%),5 (Level 5: growth control rate is above 85%),5 (Level 5: growth control rate is above 85%)
CCn1cc(-c2nccc(C(=O)Nc3nnnn3C)c2Cl)cn1 [Compound 1-172],5 (Level 5: growth control rate is above 85%),5 (Level 5: growth control rate is above 85%),5 (Level 5: growth control rate is above 85%),5 (Level 5: growth control rate is above 85%)
CCCn1cc(-c2nccc(C(=O)Nc3nnnn3C)c2Cl)cn1 [Compound 1-173],5 (Level 5: growth control rate is above 85%),5 (Level 5: growth control rate is above 85%),5 (Level 5: growth control rate is above 85%),5 (Level 5: growth control rate is above 85%)
Cn1nnnc1NC(=O)c1ccnc(-c2cnn(C(F)F)c2)c1Cl [Compound 1-174],5 (Level 5: growth control rate is above 85%),5 (Level 5: growth control rate is above 85%),5 (Level 5: growth control rate is above 85%),5 (Level 5: growth control rate is above 85%)
Cn1nnnc1NC(=O)c1ccnc(-c2cnn(Cc3ccccc3)c2)c1Cl [Compound 1-175],5 (Level 5: growth control rate is above 85%),5 (Level 5: growth control rate is above 85%),5 (Level 5: growth control rate is above 85%),5 (Level 5: growth control rate is above 85%)
CCOC(C)n1cc(-c2nccc(C(=O)Nc3nnnn3C)c2Cl)cn1 (stereo not shown) [Compound 1-176],5 (Level 5: growth control rate is above 85%),5 (Level 5: growth control rate is above 85%),5 (Level 5: growth control rate is above 85%),5 (Level 5: growth control rate is above 85%)
Cn1nnnc1NC(=O)c1ccnc(-c2ccn[nH]2)c1Cl [Compound 1-177],5 (Level 5: growth control rate is above 85%),5 (Level 5: growth control rate is above 85%),5 (Level 5: growth control rate is above 85%),5 (Level 5: growth control rate is above 85%)
Cn1nccc1-c1nccc(C(=O)Nc2nnnn2C)c1Cl [Compound 1-178],5 (Level 5: growth control rate is above 85%),5 (Level 5: growth control rate is above 85%),5 (Level 5: growth control rate is above 85%),5 (Level 5: growth control rate is above 85%)
Cc1cc(-c2nccc(C(=O)Nc3nnnn3C)c2Cl)n(C)n1 [Compound 1-179],5 (Level 5: growth control rate is above 85%),5 (Level 5: growth control rate is above 85%),5 (Level 5: growth control rate is above 85%),5 (Level 5: growth control rate is above 85%)
Cn1nc(C(F)(F)F)cc1-c1nccc(C(=O)Nc2nnnn2C)c1Cl [Compound 1-180],5 (Level 5: growth control rate is above 85%),5 (Level 5: growth control rate is above 85%),5 (Level 5: growth control rate is above 85%),5 (Level 5: growth control rate is above 85%)
Cn1nnnc1NC(=O)c1ccnc(-c2ccnn2C(F)F)c1Cl [Compound 1-181],5 (Level 5: growth control rate is above 85%),5 (Level 5: growth control rate is above 85%),5 (Level 5: growth control rate is above 85%),5 (Level 5: growth control rate is above 85%)
Cn1nnnc1NC(=O)c1ccnc(-c2ccnn2C2CCCCO2)c1Cl (stereo not shown) [Compound 1-182],5 (Level 5: growth control rate is above 85%),5 (Level 5: growth control rate is above 85%),5 (Level 5: growth control rate is above 85%),5 (Level 5: growth control rate is above 85%)
Cn1nnnc1NC(=O)c1ccnc(-c2ccoc2)c1Cl [Compound 1-183],5 (Level 5: growth control rate is above 85%),5 (Level 5: growth control rate is above 85%),5 (Level 5: growth control rate is above 85%),5 (Level 5: growth control rate is above 85%)
Cn1nnnc1NC(=O)c1ccnc(-c2ccco2)c1Cl [Compound 1-184],5 (Level 5: growth control rate is above 85%),5 (Level 5: growth control rate is above 85%),5 (Level 5: growth control rate is above 85%),5 (Level 5: growth control rate is above 85%)
Cn1nnnc1NC(=O)c1ccnc(-c2ccc(C=O)o2)c1Cl [Compound 1-185],5 (Level 5: growth control rate is above 85%),5 (Level 5: growth control rate is above 85%),5 (Level 5: growth control rate is above 85%),5 (Level 5: growth control rate is above 85%)
Cn1nnnc1NC(=O)c1ccnc(-c2cccs2)c1Cl [Compound 1-186],5 (Level 5: growth control rate is above 85%),5 (Level 5: growth control rate is above 85%),5 (Level 5: growth control rate is above 85%),5 (Level 5: growth control rate is above 85%)
Cc1ccc(-c2nccc(C(=O)Nc3nnnn3C)c2Cl)s1 [Compound 1-187],5 (Level 5: growth control rate is above 85%),5 (Level 5: growth control rate is above 85%),5 (Level 5: growth control rate is above 85%),5 (Level 5: growth control rate is above 85%)
Cc1csc(-c2nccc(C(=O)Nc3nnnn3C)c2Cl)c1 [Compound 1-188],5 (Level 5: growth control rate is above 85%),5 (Level 5: growth control rate is above 85%),5 (Level 5: growth control rate is above 85%),5 (Level 5: growth control rate is above 85%)
Cn1nnnc1NC(=O)c1ccnc(-c2ccc(Cl)s2)c1Cl [Compound 1-189],5 (Level 5: growth control rate is above 85%),5 (Level 5: growth control rate is above 85%),5 (Level 5: growth control rate is above 85%),5 (Level 5: growth control rate is above 85%)

# Source: US12497365B2, “4-pyridinyl formamide compound or derivative thereof, preparation method therefor, herbicidal composition and use thereof” (Qingdao Kingagroot Chemical Compound Co., Ltd., priority 2019, dated 2025)
